Laboratory results reported in publication PMC5146650, “Effect of arginine on oligomerization and stability of N-acetylglutamate synthase” (Scientific Reports, 2016).
pKd: −log10 of the molar value. Values joined by “and” are separate entries in the source; they are usually repeats but may differ in a detail not shown here. Equal values may be shown once.

Key:
NgNAGS = target: T1, NgNAGS (Neisseria gonorrhoeae, UniProt Q5FAK7); assay: Thermofluor thermal shift, SYPRO Orange; type: binding; conditions: read-out: change in Tm at 1 mM
T1 construct: gene argA; hexamer
T1 sequence (Q5FAK7 1-436): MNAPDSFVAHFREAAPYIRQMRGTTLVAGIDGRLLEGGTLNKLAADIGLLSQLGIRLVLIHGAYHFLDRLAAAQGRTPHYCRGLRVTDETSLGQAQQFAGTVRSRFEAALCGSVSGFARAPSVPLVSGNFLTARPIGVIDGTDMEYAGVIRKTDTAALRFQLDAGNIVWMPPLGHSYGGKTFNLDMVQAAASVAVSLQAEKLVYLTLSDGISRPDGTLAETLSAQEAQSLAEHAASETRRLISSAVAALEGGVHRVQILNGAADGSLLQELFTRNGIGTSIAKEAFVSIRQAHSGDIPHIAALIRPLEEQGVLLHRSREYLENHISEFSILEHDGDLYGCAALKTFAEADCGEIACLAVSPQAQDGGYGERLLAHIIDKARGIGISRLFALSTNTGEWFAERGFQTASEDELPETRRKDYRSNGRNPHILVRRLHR

mNAGS-C [1] = target: T2, mNAGS-C (Mus musculus, UniProt Q8R4H7); assay: NAGS activity assay after […] min preincubation at […]-45 °C; type: biochemical; conditions: 1 mM L-arginine; assayed at 30 °C; allosteric activator; range covers mNAGS-M and mNAGS-C
T2 construct: gene Nags; conserved segment only, mitochondrial targeting signal and variable segment removed
T2 sequence (Q8R4H7 84-527 limits assumed): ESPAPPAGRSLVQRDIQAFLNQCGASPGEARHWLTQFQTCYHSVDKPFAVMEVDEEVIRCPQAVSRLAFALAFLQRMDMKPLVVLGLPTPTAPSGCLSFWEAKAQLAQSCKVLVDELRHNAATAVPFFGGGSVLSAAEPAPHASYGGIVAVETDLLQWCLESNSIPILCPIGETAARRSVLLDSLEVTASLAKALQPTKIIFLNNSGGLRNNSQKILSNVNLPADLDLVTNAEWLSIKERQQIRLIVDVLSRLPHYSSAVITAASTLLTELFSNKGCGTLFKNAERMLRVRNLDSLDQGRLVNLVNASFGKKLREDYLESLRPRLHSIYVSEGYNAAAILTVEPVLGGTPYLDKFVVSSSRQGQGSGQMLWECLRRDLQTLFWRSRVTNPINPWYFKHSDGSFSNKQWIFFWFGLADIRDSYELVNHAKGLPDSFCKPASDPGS

MmNAGS-K = target: T3, MmNAGS-K (Maricaulis maris, UniProt Q0ASS9); assay: Thermofluor thermal shift, SYPRO Orange; type: binding; conditions: read-out: change in Tm at 10 mM
T3 construct: gene Mmar10_0365
T3 sequence (Q0ASS9 1-441): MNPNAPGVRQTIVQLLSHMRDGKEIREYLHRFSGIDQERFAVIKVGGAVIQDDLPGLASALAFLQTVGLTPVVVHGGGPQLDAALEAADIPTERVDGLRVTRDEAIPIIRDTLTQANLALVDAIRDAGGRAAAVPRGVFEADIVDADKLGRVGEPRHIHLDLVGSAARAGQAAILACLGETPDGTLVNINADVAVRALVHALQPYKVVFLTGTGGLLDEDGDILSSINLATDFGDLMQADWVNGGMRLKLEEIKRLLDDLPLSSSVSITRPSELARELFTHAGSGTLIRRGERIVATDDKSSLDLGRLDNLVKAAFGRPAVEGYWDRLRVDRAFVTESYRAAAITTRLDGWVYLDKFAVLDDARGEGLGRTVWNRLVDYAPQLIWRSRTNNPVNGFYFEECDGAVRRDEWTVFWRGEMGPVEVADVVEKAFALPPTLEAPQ

mNAGS-C [2] = target: T2, mNAGS-C; assay: Thermofluor thermal shift, SYPRO Orange; type: binding; conditions: read-out: change in Tm at 10 mM
XcNAGS-K = target: T4, XcNAGS-K (Xanthomonas campestris, UniProt B0RS52); assay: sedimentation velocity ultracentrifugation and Thermofluor; type: binding; conditions: 1 mM L-arginine; 10 mM Tris, 50 mM KCl, 1 mM TCEP, pH 8.0, 20 °C (ultracentrifugation); allosteric
T4 construct: gene argB
T4 sequence (B0RS52 1-447): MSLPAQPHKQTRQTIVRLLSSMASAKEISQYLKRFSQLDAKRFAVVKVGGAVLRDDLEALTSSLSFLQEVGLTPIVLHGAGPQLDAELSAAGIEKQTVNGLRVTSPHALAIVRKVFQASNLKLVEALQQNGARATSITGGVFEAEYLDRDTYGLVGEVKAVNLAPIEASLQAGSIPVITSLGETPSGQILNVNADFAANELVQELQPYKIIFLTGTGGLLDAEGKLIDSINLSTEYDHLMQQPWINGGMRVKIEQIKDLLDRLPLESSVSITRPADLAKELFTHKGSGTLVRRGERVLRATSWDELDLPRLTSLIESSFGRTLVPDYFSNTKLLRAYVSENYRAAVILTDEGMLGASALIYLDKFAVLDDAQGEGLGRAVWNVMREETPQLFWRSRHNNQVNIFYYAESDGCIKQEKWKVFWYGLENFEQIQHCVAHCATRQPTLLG

mNAGS-M [3] = target: T5, mNAGS-M (Mus musculus, UniProt Q8R4H7); assay: NAGS activity assay after […] min preincubation at […]-45 °C; type: biochemical; conditions: 1 mM L-arginine; assayed at 30 °C; allosteric activator; range covers mNAGS-M and mNAGS-C
T5 construct: gene Nags; mature form, mitochondrial targeting signal removed, variable segment kept
T5 sequence (Q8R4H7 51-527): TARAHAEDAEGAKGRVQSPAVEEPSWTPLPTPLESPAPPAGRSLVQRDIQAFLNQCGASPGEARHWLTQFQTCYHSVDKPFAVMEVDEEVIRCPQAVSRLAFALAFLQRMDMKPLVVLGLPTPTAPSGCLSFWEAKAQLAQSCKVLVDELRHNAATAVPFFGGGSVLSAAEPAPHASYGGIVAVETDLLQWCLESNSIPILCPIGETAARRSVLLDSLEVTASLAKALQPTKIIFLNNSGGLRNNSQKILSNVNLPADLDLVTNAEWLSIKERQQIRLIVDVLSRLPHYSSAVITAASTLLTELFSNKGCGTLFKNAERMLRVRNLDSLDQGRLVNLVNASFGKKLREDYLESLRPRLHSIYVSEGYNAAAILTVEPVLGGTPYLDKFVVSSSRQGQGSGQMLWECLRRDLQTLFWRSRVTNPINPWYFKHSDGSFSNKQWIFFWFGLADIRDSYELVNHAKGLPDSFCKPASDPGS

mNAGS-M [4] = target: T5, mNAGS-M; assay: Thermofluor thermal shift, SYPRO Orange; type: binding; conditions: read-out: change in Tm at 10 mM
[5] = target: bifunctional N-acetylglutamate synthase-kinase from Xanthomonas campestris (Xanthomonas campestris); assay: AUC; sedimentation velocity, sw isotherm fitted to a tetramer-octamer association model (octamer to tetramers); with 1 mM L-arginine; 20 °C, 50,000 rpm, 10 mM Tris, 50 mM KCl, 1 mM TCEP, pH 8.0
[6] = target: bifunctional N-acetylglutamate synthase-kinase from Xanthomonas campestris (Xanthomonas campestris); assay: AUC; sedimentation velocity, global fit of raw data with explicit Lamm equation solutions and reaction kinetics, tetramer-octamer model (octamer to tetramers); without L-arginine; 35, 26, 17, 12, 9, 4 and 2 uM monomer, 20 °C, 10 mM Tris, 50 mM KCl, 1 mM TCEP
[7] = target: bifunctional N-acetylglutamate synthase-kinase from Xanthomonas campestris (Xanthomonas campestris); assay: AUC; sedimentation velocity, c(s) distributions and sw isotherm fitted to a tetramer-octamer association model (octamer to tetramers); without L-arginine; 2-40 uM monomer, 20 °C, 50,000 rpm, 10 mM Tris, 50 mM KCl, 1 mM TCEP, pH 8.0

Row | Compound | ΔTm at 1000 µM (NgNAGS) | fold increase of specific activity at 1 mM (mNAGS-C [1]) | ΔTm at 10000 µM (MmNAGS-K) | ΔTm at 10000 µM (mNAGS-C [2]) | sedimentation velocity ultracentrifugation and Thermofluor (XcNAGS-K) | fold increase of specific activity at 1 mM (mNAGS-M [3]) | ΔTm at 10000 µM (mNAGS-M [4]) | pKd [5] | pKd [6] | half-life for the octamer [6] | log10koff [6] | pKd [7] | stoichiometry N [7]
1 | N=C(N)NCCC[C@H](N)C(=O)O [L-arginine] | ~-2.5 °C | 1.5- to 4 | ~10 °C | ~5 °C | equilibrium between XcNAGS-K tetramers and octamers depends on the presence and binding of L-arginine | 1.5- to 4 | ~5 °C |  |  |  |  |  | 
2 | bifunctional N-acetylglutamate synthase-kinase from Xanthomonas campestris (enzyme) |  |  |  |  |  |  |  | 4.43 | 5.59 | 45 min | -3.6 | 5.54 | 4 and 8
